{
  "source": "patent US10011813B2",
  "about": "“Methane oxidation methods and compositions” (California Institute of Technology, priority 2015, dated 2018)",
  "key": {"ANME-SRB consortia": {"tested_on": "ANME-SRB consortia", "assay": "FISH-nanoSIMS 15N incorporation (anabolic activity) of ANME-SRB consortia", "type": "cell-based, ANME-2c archaea and Desulfobacteraceae", "protocol": "Incubations for FISH-nanoSIMS and RNA analysis. For AOM incubations with sulfate or AQDS that were used for nanoSIMS (FIG. 7 and FIG. 8A) and RNA analysis (FIG. 6), incubations experiments were set up following the AOM-rate measurements described above (initially containing 1.0 mM ammonium without ^15N label). Methane oxidation rates were tracked in these incubations via the ^13C label. After 11 days, ca. 3.5 mL of supernatant remained in the serum bottles to which 3.0 mL artificial seawater without ammonium containing either 25 mM AQDS, 28 mM sulfate, or no oxidant or electron acceptor was added. Next, 0.1 mL ^15NH4^+ (100 mM) was injected to yield about 2.0 mM ammonium with ca. 75% ^15N. Methane oxidation was monitored. After additional 8 days, the medium of the AQDS incubations was exchanged by 5.0 mL new medium containing 25 mM AQDS and 2.0 mM ^15NH4^+. Now the AQDS incubations contained ca. 95% ^15NH4^+ in the ammonium pool. The cultures were incubated for additional 10 days before harvest. Total incubation time with labeled ammonium: 18 days. Average labeling strength: ca. 75% for sulfate and no oxidant or electron acceptor control; ca. 86% for the AQDS incubations.\nFor the second independent set of experiments with iron citrate, humic acids and sulfate (FIG. 8B), the medium contained 1.0 mM ammonium with ca. 40% ^15N label throughout the incubation period. These experiments were carried out from identical incubations that were for the AOM rate measurements (highlighted in Table 4). In regards to Table 4, the percentage AOM rates are reported relative to sulfate-coupled AOM (1.50 μmol cm^−3 day^−1). Top: Summary of compounds described in FIG. 1B; Bottom: Oxidants or electron acceptors resulting in an AOM rate less than 0.10 μmol […] day^−1 (<7% rel. to sulfate as oxidant or electron acceptor).\nSampling for FISH-nanoSIMS and RNA. After an 18-day incubation in the presence of ^15NH4^+, each incubation was shaken to suspend the sediment and 1.0 mL sediment slurry was sampled using a disposable sterile needle and syringe (ca. 0.3 mL wet sediment). […]\nSample preparation for aggregate embedding, sectioning, FISH, and nanoSIMS. […] Sections of ca. 1 μm thickness were cut and stretched on a water droplet on a polylysine coated slide with teflon wells (Tekdon Inc) and analyzed by fluorescence in situ hybridization (FISH). […]\nFISH conditions and probes. The FISH hybridization on thin sections of resin embedded microbial aggregates followed the recently optimized protocol described in S. E. McGlynn et al. The phylogenetic identity of microorganisms in the thin sections were determined using conventional FISH using oligonucleotide probes fluorescently labeled on both the 5′ and 3′ ends (dual labeled) as outlined herein. […]"}, "methane seep sediment": {"tested_on": "methane seep sediment", "assay": "Control experiments without methane (sediment with AQDS under nitrogen)", "type": "cell-based", "details": "AQDS 10 mM, after 3 weeks", "protocol": "Quantification of reduced AQDS by iodometry. Reduced AQDS (2,6-AQH2DS) was quantified via iodimetric titration in the anaerobic chamber. A standard solution of ca. 20 mM KI3 was prepared as follows: iodine (254 mg, 2.0 mmol) and potassium iodide (1.66 g, 10 mmol) were dissolved in 100 mL DI water. After 2 days, the clear, dark solution was N2-sparged and brought into the anaerobic chamber. The exact concentration of the KI3 standard solution was quantified to be 19.5 mM via duplicate titration with sodium thiosulfate (exactly 101.5 mM, N2-sparged). Procedure for the quantification of reduced AQDS in the incubations: 1000 μL anaerobic assay solution centrifuged in the anaerobic chamber+200 μL anaerobic HEPES (1.0 M, pH=7.5)+KI3 standard solution as needed until color minimum, added in steps of 100 μL first, then in steps of 10 μL when closer to the equivalence point.\nControl experiments without methane. […] To confirm that the methanotrophic microorganisms in the sediment had not been killed during the nitrogen+AQDS incubation, methane was later injected into these incubation bottles after 3 weeks."}, "[1]": {"tested_on": "methane seep sediment (ANME archaea)", "assay": "AOM rate measurement via 13C-methane (newly formed DIC) in methane seep sediment incubations", "type": "cell-based, ANME-2a and ANME-2c", "details": "22.5° C."}},
  "data": [
    {"smiles": "O=C1c2ccc(S(=O)(=O)O)cc2C(=O)c2ccc(S(=O)(=O)O)cc21", "note": "[AQDS, 9,10-anthraquinone-2,6-disulfonate]", "values": [
      {"measurement": "doubling time of ANME cells based on average 15N-incorporation", "setting": "ANME-SRB consortia; 18 days with 15NH4+", "result": 3.3, "unit": "months"},
      {"measurement": "anabolic activity within ANME-SRB consortia", "setting": "ANME-SRB consortia; sulfate-free incubations", "result": "occurred only in the ANME archaea"},
      {"measurement": "reduced AQDS generated without methane", "setting": "methane seep sediment", "result": "less than 1 mM"},
      {"measurement": "AOM rates compared with sulfate", "setting": "[1]", "result": "exceeded"}
    ]}
  ]
}
